Data from patent US5340800A, “Peptide medicaments for the treatment of disease” (priority 1992, dated 1994).
Where two headings read alike, the source gives them in different places. No end group written: not given here.

Columns and labels:
[1] = system: polymorphonuclear leukocyte adhesion to TNF activated endothelial cells; format: cell-based, human; settings: for Average % Change of PMN Adhesion to TNF Activated ECs: average over PMN donors (# donors in parentheses)
Description: Leukocyte adherence can be measured using several assays known in the art, and the preferred assay is described by Charo, et al., 1985, Blood, 65:473. Briefly, the assay consists of labelling leukocytes with an appropriate label, incubating them with endothelial cells and determining the number of leukocytes that adhere. Preferably the cells are labelled with a gamma ray emitting isotope and the preferred labels are ^111 Indium-oxide or ^51 chromium.
Leukocytes may be isolated from human donors using standard techniques. This generally consists of isolating blood in a physiologically balanced salt solution containing an appropriate anticoagulant, and separating the leukocytes by an appropriate separation step, preferably on Ficoll-Hypaquegradients. Contaminating erythrocytes can be removed by hypotonic lysis. The resulting leukocytes are suspended in a physiologically buffered solution, pH 7.4. The preferred physiological buffered solution is Hank's balanced salt solution that is calcium and magnesium free.
The isolated leukocytes can then be labelled by incubating them for an appropriate time, generally 15 minutes, with the desired radioisotope at a predetermined concentration. The radiolabelled cells are washed to remove unincorporated label, and then suspended in an appropriate solution to perform the adhesion assay described below.
Endothelial cells can be prepared from a number of sources and by several techniques known in the art. Preferably they are obtained from human umbilical veins using the procedure of Charo et al., above. Generally, endothelial cells are isolated by enzymatic digestion of the umbilical veins using, preferably, collagenase as described by Jaffe, E. A., et al., 1973, J. of Clin. Invest, 52:2745. The cells are grown on an appropriate tissue culture substratum, preferably gelatine-coated surfaces.
The endothelial cells may be grown in a variety of tissue culture media containing appropriate supplements such as an appropriate concentration of fetal calf serum, and other supplements/additives routinely utilized by those skilled in this art that are recognized as being favorable for endothelial cells. The endothelial cells may be passaged with a dilute solution of an appropriate protease, and if desired a metal ion chelator. Preferably a solution consisting of 0.05 to 0.25% trypsin and 0.02% EDTA is used. To ensure that the cells are indeed endothelial cells, they are tested by immunofluorescence for Factor VIII antigen, a known endothelial cell marker.
Leukocyte adherence to endothelial cell monolayers may be determined as follows. Early passage endothelial cells, generally not beyond the fifth passage, are cultured on an appropriate substratum and in a suitable cell culture medium. The culture substratum is preferably pre-coated with an appropriate substance that enhances the adherence of the endothelial cells. Several such substances are known including fibronectin, poly-L-lysine, gelatin and laminin. Fibronectin is preferred. An appropriate culture substratum is a 96 well micro titer plate, and a suitable medium is Medium 199 containing fetal calf serum and other supplements known to be beneficial for the growth and maintenance of endothelial cells that are well known to those skilled in the art. Prior to adding a predetermined number of labelled leukocytes, the endothelial cell monolayer is washed with a physiologically balanced salt solution containing a reduced amount of fetal calf serum, preferably 1%. The preferred solution is RPMI supplemented with 1% fetal calf serum.
The endothelial cell monolayer containing added leukocytes is incubated for a time sufficient to permit maximum adherence of the leukocytes, and preferably this is conducted at 37° C. for 30 minutes in an appropriate cell culture atmosphere. Generally this would consist of growing and incubating the cells for the assay period in 5% CO2, 95% air, and 95% humidity. […]

[2] = system: polymorphonuclear leukocyte migration; experiment: Chemotaxis of polymorphonuclear leukocytes (trans-well, zymosan-activated human serum); format: cell-based; settings: for inhibition of chemotaxis migration (in words): 10^-4 -10^-5 M
Description: The materials and methods for ascertaining the chemotactic inhibitory properties of peptides are generally known in the art, and the preferred procedure is described by Capsoni, et al., 1989, J. of Immunol. Meth., 120:125. Generally, chemotaxis is determined by positioning the leukocytes and a chemotactic substance on opposite sides of a membrane in appropriate culture media. The preferred apparatus for doing a chemotaxis assay is produced by Costar Corporation, Cambridge, Mass., and is termed the trans-well cell culture apparatus. […] If a substance is being tested for inhibitory activity this can be achieved by combining it with the leukocytes or the chemotactic substance.
The procedure of Capsoni, et al., above, was followed with the following modifications. Leukocytes may be isolated and labelled with ^111 Indium as described for the adhesion assay, above. The cells are resuspended after labelling in an appropriate cell culture medium at about 5×10^6 cells/ml. Next, a desired amount of the cell suspension is mixed with a predetermined amount of the peptide(s) to be tested for inhibitory activity, and the mixture added to an appropriate filter device. Three μm-pore membranes are situated in the wells of a 24 trans-well tissue culture plate. The cell/inhibitory peptide mixture is incubated for a short time at 37° C. to acclimate the cells to the membrane surface, and to provide sufficient time for them to settle onto the membrane surface. Next, inserts are set in wells containing cell culture media. The media contains zymosan-activated human serum at about 0.5%. Zymosan activation generates complement-derived chemotactic factors which attract the leukocytes through the pores of the membrane. This media was also prewarmed for an appropriate time prior to addition to the cell culture wells. After a 30 minute incubation period at 37° C., the number of leukocytes that have migrated through the membrane filter, in the presence or absence of CD18 peptides, is readily determined by counting the amount of ^111 Indium present in the media. This may be facilitated by adding an appropriate detergent at an appropriate concentration to the media in the wells prior to removing an aliquot for counting. In this way, the inhibitory activities of the peptide being tested could be determined.
Many of the materials and methods used to test the inhibitory activity of the CD18 peptides on the chemotactic response of the polymorphonuclear leukocytes are similar or identical to those used to perform the adhesion assays described in Example 1. Polymorphonuclear leukocytes were isolated and labelled with ^111 Indium as described before, and the cells were suspended in RPMI 1640 culture medium at a concentration of 5×10^6 /ml. Next, 75 μl of the cell suspension and 25 μl of media containing a desired concentration of a CD18 peptide were added to trans-well inserts, and the mixture was incubated at 37° C. for 10 minutes.
To the bottom wells of the 24-well plate 0.6 ml of media containing 0.5% zymosan-activated human serum was added. This solution was also warmed to 37° C. for 10 minutes prior to use.
Next, the assay was conducted by incubating the trans-well inserts containing the cell suspension with the desired CD18 peptide in the 24-well plates at 37° C. for 30 minutes. Subsequently, the inserts were removed, and 60 μl of a 10% sodium dodecyl sulphate solution was added to the wells of the 24-well plate. The plates were incubated with gentle shaking at room temperature for 15 minutes, and 110 μl aliquots were removed and the amount of ^111 Indium determined using a gamma-counter.

| Sequence | activity on PMN adhesion at 10^-4 M (in words) ([1]; 10^-4 M) | Average % Change of PMN Adhesion to TNF Activated ECs ([1]; 10^-4 M) [%] | Average % Change of PMN Adhesion to TNF Activated ECs ([1]; 10^-6 M) | Average % Change of PMN Adhesion to TNF Activated ECs ([1]; 10^-8 M) | inhibition of chemotaxis migration (in words) [2] | percent inhibition (-) or enhancement of polymorphonuclear leukocyte migration ([2]; 10^-4 M, donor 195) [%] | percent inhibition (-) or enhancement of polymorphonuclear leukocyte migration ([2]; 10^-4 M, donor 499) [%] | percent inhibition (-) or enhancement of polymorphonuclear leukocyte migration ([2]; 10^-4 M, donor 591) [%] | percent inhibition (-) or enhancement of polymorphonuclear leukocyte migration ([2]; 10^-4 M, donor 593) [%] | percent inhibition (-) or enhancement of polymorphonuclear leukocyte migration ([2]; 10^-5 M, donor 195) [%] | percent inhibition (-) or enhancement of polymorphonuclear leukocyte migration ([2]; 10^-5 M, donor 499) [%] | percent inhibition (-) or enhancement of polymorphonuclear leukocyte migration ([2]; 10^-5 M, donor 591) [%] | percent inhibition (-) or enhancement of polymorphonuclear leukocyte migration ([2]; 10^-5 M, donor 593) [%] | percent inhibition (-) or enhancement of polymorphonuclear leukocyte migration ([2]; 10^-6 M, donor 195) [%] | percent inhibition (-) or enhancement of polymorphonuclear leukocyte migration ([2]; 10^-6 M, donor 499) [%] | percent inhibition (-) or enhancement of polymorphonuclear leukocyte migration ([2]; 10^-6 M, donor 591) [%] | percent inhibition (-) or enhancement of polymorphonuclear leukocyte migration ([2]; 10^-6 M, donor 593) [%] | Average % Change of PMN Adhesion to TNF Activated ECs ([1]; 10^-5 M) | Average % Change of PMN Adhesion to TNF Activated ECs ([1]; 10^-7 M) |
| --- | --- | --- | --- | --- | --- | --- | --- | --- | --- | --- | --- | --- | --- | --- | --- | --- | --- | --- | --- |
| FDYPSVGQLAHKLAENNIQPIFAVT [Peptide 2-24, NH2 --Phe--Asp--Tyr--Pro--Ser--Val--Gly--Gln--Leu--Ala--His--Lys--Leu--Ala--Glu--Asn--Asn--Ile--Gln--Pro--Ile--Phe--Ala--Val--Thr--COOH] | show activity | -79 | -10% | -2% | marked inhibition | -48 | -77 | -73 | -89 | -33 | -33 | -9 | -40 | 22 | 0 | -17 | -22 |  |  |
| IPKSAVGELSEDSSNVVHLIKNAYNKLSS [Peptide 3-29, NH2 --Ile--Pro--Lys--Ser--Ala--Val--Gly--Glu--Leu--Ser--Glu--Asp--Ser--Ser--Asn--Val--Val--His--Leu--Ile--Lys--Asn--Ala--Tyr--Asn--Lys--Leu--Ser--Ser--COOH] | show activity | -58 | -5% | -2% | marked inhibition | -7 | -33 | -57 | -85 | 11 | 23 | -6 | -17 | -26 | -10 | 11 | -6 | +12% | +27% |
| RIGFGSFVDKTVLPFVNTHPDKLRN [Peptide 6-25, NH2 --Arg--Ile--Gly--Phe--Gly--Ser--Phe--Val--Asp--Lys--Thr--Val--Leu--Pro--Phe--Val--Asn--Thr--His--Pro--Asp--Lys--Leu--Arg--Asn--COOH] |  | -13 | +8% | +12% |  | -4 | -3 | -16 | -51 | 11 | -13 | 49 | 26 | -44 | -8 | 49 | 20 |  |  |
| VGKQLISGNLDAPEGGLDAMMQVA [Peptide 5-24, NH2 --Val--Gly--Lys--Gln--Leu--Ile--Ser--Gly--Asn--Leu--Asp--Ala--Pro--Glu--Gly--Gly--Leu--Asp--Ala--Met--Met--Gln--Val--Ala--COOH] |  | -17 | -13% | -6% |  | -52 | 0 | 51 | -33 | -56 | -15 | 55 | 12 | -22 | -26 | 52 | -4 |  |  |
